According to ChEMBL document CHEMBL1122581, “Antiviral activity of C-5 substituted tubercidin analogues” (1984):
In brackets after ≈: the same amount, converted by molar mass.

The compounds below were run on Vaccinia virus (assay: Compound was tested for the concentration required to reduce vaccinia virus induced cytopathogenicity by 50% in primary rabbit kidney cell cultures). Conditions: Orthopoxvirus vaccinia.
Format: functional
With `Nc1ncnc2c1ncn2C[C@@H](O)CO` the MIC was 70 µg/mL (≈ 335 µM).

These compounds were tested on Vaccinia virus (assay: Concentration required to reduce vaccinia virus induced cytopathogenicity by 50% in primary rabbit kidney cell cultures.). Conditions: Orthopoxvirus vaccinia.
Format: functional
For `Nc1ncnc2c1cc(Br)n2C1O[C@H](CO)[C@@H](O)[C@H]1O` (some centres undefined), the MIC was 300 µg/mL (≈ 869 µM). `Nc1ncnc2c1c(Br)c(Br)n2C1O[C@H](CO)[C@@H](O)[C@H]1O` (some centres undefined) was tested, and the MIC was 20 µg/mL (≈ 47.2 µM). With `Nc1ncnc2c1c(CCCO)cn2C1O[C@H](CO)[C@@H](O)[C@H]1O` (some centres undefined) the MIC was 2 µg/mL (≈ 6.17 µM). With `Nc1ncnc2c1c(/C=C/Br)cn2C1O[C@H](CO)[C@@H](O)[C@H]1O` (some centres undefined) the MIC was greater than 1 µg/mL. In the case of `Nc1ncnc2c1c(Cl)c(Cl)n2C1O[C@H](CO)[C@@H](O)[C@H]1O` (some centres undefined), the MIC is reported as greater than 40 µg/mL. `N#C/C=C/c1cn(C2O[C@H](CO)[C@@H](O)[C@H]2O)c2ncnc(N)c12` (some centres undefined) showed an MIC of 0.7 µg/mL (≈ 2.21 µM). In the case of `CC(O)c1cn(C2O[C@H](CO)[C@@H](O)[C@H]2O)c2ncnc(N)c12` (some centres undefined), the MIC is reported as 0.7 µg/mL (≈ 2.26 µM). `COC(C)c1cn(C2O[C@H](CO)[C@@H](O)[C@H]2O)c2ncnc(N)c12` (some centres undefined) gave an MIC of 0.7 µg/mL (≈ 2.16 µM). `C/C=C/Cc1cn(C2O[C@H](CO)[C@@H](O)[C@H]2O)c2ncnc(N)c12` (some centres undefined) showed an MIC of 0.7 µg/mL (≈ 2.19 µM). Compound `CCCCc1cn(C2O[C@H](CO)[C@@H](O)[C@H]2O)c2ncnc(N)c12` (some centres undefined) has an MIC greater than 40 µg/mL. Compound `Nc1ncnc2c1c(Br)cn2[C@@H]1O[C@H](CO)[C@@H](O)[C@H]1O` has an MIC of 0.2 µg/mL (≈ 0.579 µM). For `Nc1nccc2c1ncn2[C@@H]1C[C@H](CO)[C@H](O)C1O` (some centres undefined), the MIC was 0.1 µg/mL (≈ 0.378 µM). `Nc1ncnc2c1c(Cl)cn2[C@@H]1O[C@H](CO)[C@@H](O)[C@H]1O` was tested, and the MIC was greater than 1 µg/mL. For `Nc1ncnc2c1c(I)cn2[C@@H]1O[C@H](CO)[C@@H](O)[C@H]1O` [IODOTUBERCIDIN], the MIC was 0.07 µg/mL (≈ 0.179 µM). With `NC(=O)c1ncn([C@@H]2O[C@H](CO)[C@@H](O)[C@H]2O)n1` [RIBAVIRIN] the MIC was 10 µg/mL (≈ 40.9 µM). For `NC(=O)c1cn([C@@H]2O[C@H](CO)[C@@H](O)[C@H]2O)c2ncnc(N)c12` [SANGIVAMYCIN], the MIC was 0.02 µg/mL (≈ 0.0647 µM). `N#Cc1cn([C@@H]2O[C@H](CO)[C@@H](O)[C@H]2O)c2ncnc(N)c12` [TOYOCAMYCIN] was tested, and the MIC was greater than 0.01 µg/mL. `Nc1ncnc2c1ccn2[C@@H]1O[C@H](CO)[C@@H](O)[C@H]1O` [TUBERCIDIN] showed an MIC of 0.02 µg/mL (≈ 0.0751 µM).
